In this data set the test system is GENE-TOX genotoxicity assays, various organisms and cells. Kind of data set: GENE-TOX mutagenicity studies. Particulars: for call: Assay Type: In vivo carcinogenicity studies.
Setting [1] is: Species/Cell Type: Chinese hamster lung (V79) cells, Assay Type: Forward gene mutation at the HPRT or ouabain locus, Assay Code: V79+, Evaluation Type: Evaluation A (Pre-1980).
Setting [2] is: Species/Cell Type: Neurospora crassa, Assay Type: Forward gene mutation, Assay Code: NEF+, Evaluation Type: Evaluation A (Pre-1980).
[3] abbreviates: Species/Cell Type: Neurospora crassa, Assay Type: Reverse gene mutation, Assay Code: NER+, Evaluation Type: Evaluation A (Pre-1980).
Setting [4] is: Species/Cell Type: Saccharomyces cerevisiae, Assay Type: Mitotic recombination or gene conversion, Assay Code: YEC+, Evaluation Type: Evaluation A (Pre-1980).
Where [5] appears, read: Species/Cell Type: Salmonella typhimurium (one or more of the five standard strains: TA98, TA100, TA1535, TA1537, and TA1538), Assay Type: Histidine reverse gene mutation, Ames assay, Assay Code: SAL+, Evaluation Type: Evaluation A (Pre-1980).
[6] abbreviates: Species/Cell Type: Vicia faba, Assay Type: Chromosome aberrations, Assay Code: VIC+D, Dose Response: With dose response, Evaluation Type: Evaluation A (Pre-1980).
Where [7] appears, read: Species/Cell Type: Saccharomyces cerevisiae, Assay Type: Mitotic recombination or gene conversion, Assay Code: YEC-, Evaluation Type: Evaluation A (Pre-1980).
The mark [8] stands for this setting: Species/Cell Type: Nonhuman, Assay Code: CCG-, Evaluation Type: Evaluation A (Pre-1980).
The mark [9] stands for this setting: Species/Cell Type: Nonhuman, Assay Code: CCG+, Evaluation Type: Evaluation A (Pre-1980).
[10] abbreviates: Species/Cell Type: Nonhuman, Assay Code: CCGT, Evaluation Type: Evaluation A (Pre-1980).
The mark [11] stands for this setting: Species/Cell Type: Salmonella typhimurium (one or more of the five standard strains: TA98, TA100, TA1535, TA1537, and TA1538), Assay Type: Histidine reverse gene mutation, Ames assay, Assay Code: SALT, Evaluation Type: Evaluation A (Pre-1980).
Setting [12] is: Species/Cell Type: Syrian hamster embryo (SHE) cells, Assay Type: Cell transformation, clonal assay, Assay Code: CTCT, Evaluation Type: Evaluation A (Pre-1980).
The mark [13] stands for this setting: Species/Cell Type: Escherichia coli polA (W3119 vs P3478), Assay Type: Rec-assay, DNA effects (bacterial DNA repair), Assay Code: RE1+, Evaluation Type: Evaluation A (Pre-1980).

Active and inactive are the calls of the source. How the calls were made is not given here.

With `CCN(CCCl)CCCNc1c2ccc(Cl)cc2nc2ccc(OC)cc12`, the mutagenic call was “active; positive” under setting [1]; “active; positive” (Species/Cell Type: Chinese hamster ovary (CHO) cells, Assay Type: Forward gene mutation at the HPRT locus, Assay Code: CHO+D, Dose Response: With dose response, Evaluation Type: Evaluation A (Pre-1980)); “active; positive” (Species/Cell Type: Drosophila melanogaster, Assay Type: Sex-linked recessive lethal gene mutation, Assay Code: SRL+, Evaluation Type: Evaluation A (Pre-1980)); “active; positive” under setting [2]; “active; positive” under setting [3]; “no conclusion” (Species/Cell Type: Rodents, Sex: Male, Assay Type: Dominant lethal test, Assay Code: DLTT, Evaluation Type: Evaluation A (Pre-1980)). Also, the mutagenic call by setting is: (Species/Cell Type: Saccharomyces cerevisiae, Assay Type: Forward gene mutation, Assay Code: YEF+, Evaluation Type: Evaluation A (Pre-1980)) “active; positive”; under setting [4], “active; positive”; (Species/Cell Type: Saccharomyces cerevisiae, Assay Type: Mitotic recombination or gene conversion, Assay Code: YEH+, Evaluation Type: Evaluation A (Pre-1980)) “active; positive”; (Species/Cell Type: Saccharomyces cerevisiae, Assay Type: Reverse gene mutation, Assay Code: YER+, Evaluation Type: Evaluation A (Pre-1980)) “active; positive”; under setting [5], “active; positive”; under setting [6], “active; positive”. Besides, the call (Species/Cell Type: Nonhuman, Assay Code: CCG+L, Evaluation Type: Evaluation A (Pre-1980)) is “active; positive”.

Consider `COc1cc(/C=C/C(=O)CC(=O)/C=C/c2ccc(O)c(OC)c2)ccc1O`, for which the mutagenic call under setting [7] was “inactive; negative”.

With `CCOC(=O)CC(SP(=O)(OC)OC)C(=O)OCC` (stereo not given), the call under setting [8] was “inactive; negative”. Moreover, for the setting “Species/Cell Type: Nonhuman, Assay Type: Sister-chromatid exchange (SCE) in vitro, Assay Code: SC2+D, Dose Response: With dose response, Evaluation Type: Evaluation B (Post-1980)”, the mutagenic call was “active; positive”.

Consider `CC1CC(=O)O1` (stereo not given), for which the call under setting [9] is “active; positive”.

`O[C@@H]1C=Cc2cc3ccc4cccc5ccc(c2[C@H]1O)c3c45`: the mutagenic call (Species/Cell Type: Chinese hamster lung (V79) cells, Assay Type: Forward gene mutation at the HPRT or ouabain locus, Assay Code: V79-*, Activation: With metabolic activation, Evaluation Type: Evaluation A (Pre-1980)) was “inactive; negative”; the mutagenic call (Species/Cell Type: Nonhuman, Assay Type: Sister-chromatid exchange (SCE) in vitro, Assay Code: SC2+, Evaluation Type: Evaluation A (Pre-1980)) was “active; positive”; the mutagenic call under setting [11] is “no conclusion”; the mutagenic call under setting [12] is recorded as “no conclusion”. In addition, the call under setting [10] is recorded as “no conclusion”.

For `CC(=O)N(O)c1ccc2c(c1)Cc1ccccc1-2`, the mutagenic call was “active; positive” under setting [1]; “active; positive” (Species/Cell Type: Chinese hamster ovary (CHO) cells, Assay Type: Forward gene mutation at the HPRT locus, Assay Code: CHO+, Evaluation Type: Evaluation B (Post-1980)); “no conclusion” (Species/Cell Type: Drosophila melanogaster, Assay Type: Sex-linked recessive lethal gene mutation, Assay Code: SRLT, Evaluation Type: Evaluation A (Pre-1980)); “active; positive” under setting [13]; “active; positive” (Species/Cell Type: Fischer rat embryo (RLV/1706) cells, Assay Type: Cell transformation, viral enhanced, Assay Code: CTR+, Evaluation Type: Evaluation A (Pre-1980)); “active; positive” (Species/Cell Type: Human diploid fibroblasts, Assay Type: Unscheduled DNA synthesis (UDS) in vitro, DNA effects, Assay Code: UDH+D, Dose Response: With dose response, Evaluation Type: Evaluation A (Pre-1980)). The mutagenic call (Species/Cell Type: Human lymphocytes, Assay Type: Sister-chromatid exchange (SCE) in vitro, Assay Code: SCLT, Evaluation Type: Evaluation A (Pre-1980)) is given as “no conclusion”; the mutagenic call (Species/Cell Type: Human, Assay Type: Sister-chromatid exchange (SCE) in vitro, Assay Code: SC1+, Evaluation Type: Evaluation B (Post-1980)) is “active; positive”; the mutagenic call (Species/Cell Type: Human, Assay Type: Sister-chromatid exchange (SCE) in vitro, Assay Code: SC1T, Evaluation Type: Evaluation A (Pre-1980)) is listed as “no conclusion”; the mutagenic call (Species/Cell Type: Mouse (BALB/c-3T3) cells, Assay Type: Cell transformation, Assay Code: CTB+D, Dose Response: With dose response, Evaluation Type: Evaluation A (Pre-1980)) is “active; positive”; the mutagenic call (Species/Cell Type: Mouse embryo (AKR/ME) cells, Assay Type: Cell transformation, Assay Code: CTK-, Evaluation Type: Evaluation A (Pre-1980)) was “inactive; negative”; the mutagenic call under setting [3] is “active; positive”. Moreover, the mutagenic call is, setting by setting: (Species/Cell Type: Nonhuman, Assay Type: Sister-chromatid exchange (SCE) in vitro, Assay Code: SC2+D, Dose Response: With dose response, Evaluation Type: Evaluation A (Pre-1980)) “active; positive”; (Species/Cell Type: Rat primary hepatocytes, Assay Type: Unscheduled DNA synthesis (UDS) in vitro, DNA effects, Assay Code: UDP+, Evaluation Type: Evaluation A (Pre-1980)) “active; positive”; under setting [4], “active; positive”; under setting [5], “active; positive”; (Species/Cell Type: Syrian hamster embryo (SHE) cells, Assay Type: Cell transformation, clonal assay, Assay Code: CTC+D, Dose Response: With dose response, Evaluation Type: Evaluation A (Pre-1980)) “active; positive”. Under setting [9], the call was “active; positive”.

Take `O=S(=O)(c1ccc(Cl)cc1)c1cc(Cl)c(Cl)cc1Cl`: the mutagenic call under setting [6] was “active; positive”.

Consider `Clc1ccc2c(Cl)ccnc2c1`, for which the mutagenic call under setting [11] is reported as “no conclusion”.

`O[C@@H]1c2ccccc2-c2cc3ccc4ccccc4c3cc2[C@H]1O`: the mutagenic call was “inactive; negative” (Species/Cell Type: Chinese hamster lung (V79) cells, Assay Type: Forward gene mutation at the HPRT or ouabain locus, Assay Code: V79-, Evaluation Type: Evaluation A (Pre-1980)); “inactive; negative” (Species/Cell Type: Mouse prostate cells, Assay Type: Cell transformation, Assay Code: CTM-, Evaluation Type: Evaluation A (Pre-1980)); “active; positive” (Species/Cell Type: Salmonella typhimurium (one or more of the five standard strains: TA98, TA100, TA1535, TA1537, and TA1538), Assay Type: Histidine reverse gene mutation, Ames assay, Assay Code: SAL+*, Activation: With metabolic activation, Evaluation Type: Evaluation A (Pre-1980)); “no conclusion” under setting [12]. In addition, under setting [10], the call is recorded as “no conclusion”.

Take `CCCCNC(=O)n1c(NC(=O)OC)nc2ccccc21`: the mutagenic call is, setting by setting: (Species/Cell Type: Allium cepa, Assay Type: Chromosome aberrations, Assay Code: ALC+, Evaluation Type: Evaluation A (Pre-1980)) “active; positive”; (Species/Cell Type: Aspergillus nidulans, Assay Type: Aneuploidy, chromosome aberrations, Assay Code: ASN+, Evaluation Type: Evaluation A (Pre-1980)) “active; positive”; (Species/Cell Type: Aspergillus nidulans, Assay Type: Mitotic recombination, Assay Code: ASG-, Evaluation Type: Evaluation A (Pre-1980)) “inactive; negative”; (Species/Cell Type: Escherichia coli WP2, Assay Type: Tryptophan reverse gene mutation, Assay Code: WP2T, Evaluation Type: Evaluation A (Pre-1980)) “no conclusion”; (Species/Cell Type: Escherichia coli WP2 UVRA, Assay Type: Tryptophan reverse gene mutation, Assay Code: WPU+, Evaluation Type: Evaluation A (Pre-1980)) “active; positive”; under setting [7], “inactive; negative”. In addition, the mutagenic call (Species/Cell Type: Salmonella typhimurium, Assay Type: Forward and reverse gene mutation, host-mediated assay, Assay Code: HMA-, Evaluation Type: Evaluation A (Pre-1980)) was “inactive; negative”.

On to `Nc1cc([N+](=O)[O-])ccc1C(=O)O`, for which, under setting [8], the call was “inactive; negative”.

As for `S=c1nc[nH]c2nc[nH]c12`, the mutagenic call by setting is: under setting [13], “active; positive”; (Species/Cell Type: Mammalian germ cells, Sex: Male, Assay Type: Chromosome aberrations in vivo, Assay Code: CY9+, Evaluation Type: Evaluation A (Pre-1980)) “active; positive”; (Species/Cell Type: Mammalian polychromatic erythrocytes, Assay Type: Micronucleus test, chromosome aberrations, Assay Code: MNT+, Evaluation Type: Evaluation A (Pre-1980)) “active; positive”; (Species/Cell Type: Mouse (C3H/10T1/2) cells, Assay Type: Cell transformation, Assay Code: CTH-, Evaluation Type: Evaluation A (Pre-1980)) “inactive; negative”; (Species/Cell Type: Mouse, Sex: Male, Assay Type: Heritable translocation test, chromosome aberrations, Assay Code: HTT-, Evaluation Type: Evaluation A (Pre-1980)) “inactive; negative”; (Species/Cell Type: Nonhuman bone marrow, Assay Type: Chromosome aberrations, in vivo, Assay Code: CY#+D, Dose Response: With dose response, Evaluation Type: Evaluation A (Pre-1980)) “active; positive”. Besides, the mutagenic call is, setting by setting: (Species/Cell Type: Nonhuman, Assay Type: Sister-chromatid exchange (SCE) in vitro, Assay Code: SC2T, Evaluation Type: Evaluation B (Post-1980)) “no conclusion”; (Species/Cell Type: Rodents, Sex: Male, Assay Type: Dominant lethal test, Assay Code: DLT+, Evaluation Type: Evaluation A (Pre-1980)) “active; positive”. Under setting [10], the call is “no conclusion”.

Turning to `C1C2OC2C2OC12` (stereo not given), the mutagenic call under setting [2] was “active; positive”.
